According to patent publication US20260184715A1, “NOVEL PYRROLO[1,2-d][1,2,4] TRIAZINONE DERIVATIVES AS NEGATIVE ALLOSTERIC MODULATORS OF MGLU7 RECEPTORS” (Neurosterix Pharma Sarl., priority 2022, published 2026):

What follows are compounds tested against T1, human metabotropic glutamate 7 receptor (hmGlu7) (Homo sapiens, UniProt Q14831) (assay: mGlu7 assay on HEK-expressing human mGlu7: fluorescent cell based-Ca2+ mobilization assay (FLIPR), inhibition of EC80 L-AP4 response). Settings: HEK-293 cells expressing hmGlu7, EC80 L-AP4; mean of at least three independent experiments in duplicate; read-out: Ca^2+ Flux (mean IC50).
T1 construct: expressed in transfected cells
T1 sequence (Q14831 35-922 isoform Q14831-2 limits assumed): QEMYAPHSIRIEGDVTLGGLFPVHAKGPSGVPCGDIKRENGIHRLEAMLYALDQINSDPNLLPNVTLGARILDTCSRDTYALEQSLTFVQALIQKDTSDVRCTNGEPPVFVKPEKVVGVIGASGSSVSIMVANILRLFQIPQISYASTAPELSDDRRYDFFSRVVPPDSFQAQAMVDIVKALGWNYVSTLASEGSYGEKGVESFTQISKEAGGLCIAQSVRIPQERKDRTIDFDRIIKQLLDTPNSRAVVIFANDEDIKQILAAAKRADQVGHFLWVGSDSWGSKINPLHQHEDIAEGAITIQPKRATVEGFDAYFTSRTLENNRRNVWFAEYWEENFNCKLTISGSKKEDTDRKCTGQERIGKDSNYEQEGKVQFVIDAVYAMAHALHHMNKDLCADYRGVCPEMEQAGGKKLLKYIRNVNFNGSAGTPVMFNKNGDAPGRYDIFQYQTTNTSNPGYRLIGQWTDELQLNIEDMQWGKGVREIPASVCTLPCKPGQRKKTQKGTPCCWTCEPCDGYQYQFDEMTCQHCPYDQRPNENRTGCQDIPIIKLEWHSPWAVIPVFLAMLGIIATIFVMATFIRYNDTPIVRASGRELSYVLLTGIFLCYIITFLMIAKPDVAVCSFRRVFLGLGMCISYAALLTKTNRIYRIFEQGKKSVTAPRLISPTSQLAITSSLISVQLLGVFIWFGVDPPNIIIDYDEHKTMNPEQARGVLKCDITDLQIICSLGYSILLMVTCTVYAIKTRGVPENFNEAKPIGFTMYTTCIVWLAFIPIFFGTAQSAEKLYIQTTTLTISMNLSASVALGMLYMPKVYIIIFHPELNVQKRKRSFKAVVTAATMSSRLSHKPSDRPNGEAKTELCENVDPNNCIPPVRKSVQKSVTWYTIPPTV
Text: mGlu7 Assay on HEK-Expressing Human mGLU7
The cDNA encoding the human metabotropic glutamate 7 receptor (hmGlu7), (accession number NM_181874.2, NCBI Nucleotide database browser), was subcloned into an expression vector containing also the hygromycin resistance gene. In parallel, the cDNA encoding a G protein allowing redirection of the activation signal to intracellular calcium flux was subcloned into a different expression vector containing also the Puromycin resistance gene. Transfection of both these vectors into HEK293 cells with PolyFect reagent (Qiagen) according to supplier's protocol, and hygromycin and puromycin treatment allowed selection of antibiotic resistant cells which had integrated stably one or more copies of the plasmids. Positive cellular clones expressing hmGlu7 were identified in a functional assay measuring changes in calcium fluxes in response to glutamate and L-AP4 or known mGlu7 orthosteric antagonists.
HEK-293 cells expressing hmGlu7 were maintained in media containing DMEM, Fetal Bovine Serum (10%), GlutaMAX™ (2 mM), penicillin (100 units/mL), streptomycin (100 μg/mL), geneticin (100 μg/mL) and hygromycin-B (40 μg/mL) and puromycin (1 μg/mL) at 37° C. with 5% CO2 in a humidified atmosphere.
Human mGlu7 HEK-293 cells were plated out 24 hours prior to a fluorescent cell-based calcium mobilization assay using FLIPR^384 assay (Molecular Device, Sunnyvale, CA, USA) in black-walled, clear-bottomed, poly-L-ornithine-coated 384-well plates at a density of 25,000 cells/well in a glutamine/glutamate free DMEM medium containing fetal bovine serum (10%), penicillin (100 units/mL), streptomycin (100 μg/mL) and doxycyline (1 μg/ml) at 37° C. with 5% CO2 in a humidified atmosphere.
On the day of the assay, the medium was aspirated and the cells were loaded with a 3 μM solution of Fluo4-AM (LuBioScience, Lucerne, Switzerland) in 0.03% pluronic acid. After 1 hour at 37° C./5% CO2, the non incorporated dye was removed by washing cell plate with the assay buffer. All assays were performed in a pH 7.4 buffered-Solution containing 20 mM HEPES, 143 mM NaCl, 6 mM KCl, 1 mM MgSO4, 1 mM CaCl2, 0.125 mM sulfinpyrazone and 0.1% glucose.
After 10 s of basal fluorescence recording, various concentrations of the compounds of the invention were added to the cells. Changes in fluorescence levels were first monitored for 180 s in order to detect any agonist activity of the compounds. Then the cells were stimulated by an EC80 L-AP4 concentration for an additional 110 s in order to measure inhibiting activities of the compounds of the invention. EC80 L-AP4 concentration is the concentration giving 80% of the maximal glutamate response.
The concentration-response curves of L-AP4 or representative compounds of the present invention were generated using the Prism GraphPad software (Graph Pad Inc, San Diego, USA). The curves were fitted to a four-parameter logistic equation:
(Y=Bottom+(Top−Bottom)/(1+10^((Log IC50−X)*Hill Slope)
allowing determination of IC50 values.
The Table 3 below represents the mean IC50 obtained from at least three independent experiments of selected molecules performed in duplicate.

IC50 | SMILES
< 100 nM | COc1cc(-c2cc3cnn(-c4ccccn4)c(=O)n3c2C)ccc1F [1-107]
100 to 1000 nM | Cc1c(-c2cccc(N3CCC3)c2)c(C)n2c(=O)n(-c3ncc(OCCN(C)C)cn3)ncc12 [1-43]
100 to 1000 nM | Cc1c(OC2CC2)cccc1-c1c(C)c2cnn(-c3ccc(F)cn3)c(=O)n2c1C [1-54]
< 100 nM | COc1cc(F)cc(-c2cc3cnn(-c4ncccn4)c(=O)n3c2C)c1 [1-103]
< 100 nM | Cc1c(-c2cccc(OC(F)F)c2)c(C)n2c(=O)n(-c3ncc(F)cn3)ncc12 [1-17]
100 to 1000 nM | Cc1c(-c2cccc(OC(F)F)c2)cc2cnn(-c3ccccn3)c(=O)n12 [1-70]
100 to 1000 nM | Cc1c(-c2cccc(OC3CC3)c2)c(C)n2c(=O)n(-c3ncc(N)cn3)ncc12 [1-81]
100 to 1000 nM | Cc1c(-c2cccc(N3CCC3)c2)c(C)n2c(=O)n(C)ncc12 [1-12]
< 100 nM | Cc1c(-c2cccc(N3CCC3)c2)c(C)n2c(=O)n(-c3ncc(F)cn3)ncc12 [1-15]
100 to 1000 nM | COc1cccc(-c2c(Br)c3cnn(-c4ccccn4)c(=O)n3c2C)c1F [1-115, 8-bromo-7-(2-fluoro-3-methoxy-phenyl)-6-methyl-3-(2-pyridyl)pyrrolo[1,2-d][1,2,4]triazin-4-one]
100 to 1000 nM | Cc1c(-c2cccc3c2CCN3C2CC2)cc2cnn(-c3ncccn3)c(=O)n12 [1-67]
100 to 1000 nM | Cc1c(OC2CC2)cccc1-c1cc2cnn(-c3ccccn3)c(=O)n2c1 [1-82]
< 100 nM | Cc1c(-c2cccc3c2CCN3C)cc2cnn(-c3ncccn3)c(=O)n12 [1-90]
100 to 1000 nM | Cc1c(-c2ccnc3c2CCN3C)cc2cnn(-c3ncccn3)c(=O)n12 [1-119]
< 100 nM | COc1ccc(-c2c(C)c3cnn(-c4ccccn4)c(=O)n3c2C)cn1 [1-129]
< 100 nM | Cc1c(-c2cc3cnn(-c4ccccn4)c(=O)n3c2C)ccnc1OC1CC1 [1-143]
100 to 1000 nM | COc1cccc(-c2cc3cnn(-c4ncccn4)c(=O)n3c2C)c1F [1-112]
< 100 nM | COc1cccc(-c2c(C)c3cnn(-c4ccccn4)c(=O)n3c2C)c1 [1-2]
1000 to 10000 nM | Cc1c(-c2cccc(N3CCC3)c2)c(C)n2c(=O)n(-c3ccc(Br)cn3)ncc12 [1-26]
< 100 nM | COc1ccc(F)c(-c2c(C)c3cnn(-c4ncccn4)c(=O)n3c2C)c1 [1-127]
100 to 1000 nM | Cc1c(-c2cccc(OC3CC3)c2)c(C)n2c(=O)n(-c3ncc(Cl)cn3)ncc12 [1-48]
100 to 1000 nM | COc1cccc(-c2cc3cnn(-c4ccccn4)c(=O)n3c2C)c1F [1-108]
< 100 nM | Cc1c(-c2cccc3c2CCN3C)cc2cnn(-c3ccccn3)c(=O)n12 [1-64]
100 to 1000 nM | CCn1ncc2c(C)c(-c3cccc4c3CCN4C)c(C)n2c1=O [1-100]
< 100 nM | Cc1c(-c2cccc(OC3CC3)c2Cl)cc2cnn(-c3ncccn3)c(=O)n12 [1-110]
100 to 1000 nM | Cc1c(-c2cccc(N3CCC3)c2)c(C)n2c(=O)n(-c3ccc(NC(=O)OC(C)(C)C)cn3)ncc12 [1-31]
100 to 1000 nM | Cc1c(-c2cccc3c2CCCN3C)c(C)n2c(=O)n(-c3ncccn3)ncc12 [1-86]
100 to 1000 nM | Cc1c(-c2cccc(OC3CCC3)c2)c(C)n2c(=O)n(-c3ncccn3)ncc12 [1-124]

More lines, now with the values behind:

SMILES | IC50
COc1ccc(-c2c(C)c3cnn(-c4ncccn4)c(=O)n3c2C)c(C)n1 [1-137] | 100 to 1000 nM
COc1cccc(-c2cc3cnn(-c4ccccn4)c(=O)n3c2C)c1Cl [1-73] | < 100 nM
COc1cccc(-c2cc3cnn(-c4ncccn4)c(=O)n3c2C)c1Cl [1-77] | < 100 nM
CCn1ncc2c(C)c(-c3cccc4c3CCCN4C)c(C)n2c1=O [1-94] | 100 to 1000 nM
COc1nccc(-c2cc3cnn(-c4ccccn4)c(=O)n3c2C)c1F [1-116] | 100 to 1000 nM
COc1ccc(F)c(-c2c(C)c3cnn(-c4ccccn4)c(=O)n3c2C)c1 [1-126] | 100 to 1000 nM
Cc1c(-c2cccc(OC3CC3)c2)c(C)n2c(=O)n(-c3ncc(N4CCC(O)C4)cn3)ncc12 (centres unmarked) [1-80] | 100 to 1000 nM
Cc1c(-c2cccc(F)c2Cl)c(C)n2c(=O)n(-c3ncccn3)ncc12 [1-123] | < 100 nM
Cc1c(-c2cccc3c2CCN3C(C)C)cc2cnn(-c3ncccn3)c(=O)n12 [1-68] | < 100 nM
COc1ccc(-c2c(C)c3cnn(-c4ncccn4)c(=O)n3c2C)cn1 [1-132] | < 100 nM
COc1cccc(-c2cc3cnn(-c4ncccn4)c(=O)n3c2C)c1 [1-61] | 100 to 1000 nM
Cc1c(OC(F)F)cccc1-c1c(C)c2cnn(-c3ncccn3)c(=O)n2c1C [1-120] | 100 to 1000 nM
COc1nccc(-c2cc3cnn(-c4ncccn4)c(=O)n3c2C)c1F [1-117] | < 100 nM
Cc1c(-c2cccc(OC3CC3)c2F)cc2cnn(-c3ccccn3)c(=O)n12 [1-109] | < 100 nM
Cc1c(-c2cccc(OC3CC3)c2)c(C)n2c(=O)n(-c3ccccn3)ncc12 [1-20] | < 100 nM
COc1ccc(-c2c(C)c3cnn(-c4ccccn4)c(=O)n3c2C)c(F)c1 [1-136] | < 100 nM
Cc1c(-c2cccc(OC(F)F)c2)c(C)n2c(=O)n(-c3ccccn3)ncc12 [1-37] | < 100 nM
COc1ccc(-c2c(C)c3cnn(-c4ncccn4)c(=O)n3c2C)cc1 [1-122] | 100 to 1000 nM
Cc1c(-c2cccc(OC3CC3)c2F)c(C)n2c(=O)n(-c3ncccn3)ncc12 [1-125] | 100 to 1000 nM
Cc1c(-c2ccnc3c2CCN3C)cc2cnn(-c3ccccn3)c(=O)n12 [1-118, 6-methyl-7-(1-methyl-2,3-dihydropyrrolo[2,3-b]pyridin-4-yl)-3-(2-pyridyl)pyrrolo[1,2-d][1,2,4]triazin-4-one] | < 100 nM
Cc1c(OC2CC2)cccc1-c1c(C)c2cnn(-c3ncccn3)c(=O)n2c1C [1-27] | < 100 nM
Cc1c(-c2cccc3c2CCCN3C)cc2cnn(-c3ncccn3)c(=O)n12 [1-89] | < 100 nM

SMILES | IC50
Cc1c(-c2cccc3c2OCCN3C)cc2cnn(-c3ccccn3)c(=O)n12 [1-62] | < 100 nM
Cc1c(OC2CC2)cccc1-c1c(C)c2cnn(-c3ccc(C(C)(C)O)cn3)c(=O)n2c1C [1-59] | < 100 nM
COc1cc(-c2cc3cnn(-c4ccccn4)c(=O)n3c2C)ccn1 [1-106] | < 100 nM
COc1cccc(-c2cc3cnn(-c4ccccn4)c(=O)n3c2C)c1C [1-72] | < 100 nM
COc1ccc(-c2c(C)c3cnn(-c4ncccn4)c(=O)n3c2C)c(F)c1 [1-135] | < 100 nM
COc1ccc(-c2cc3cnn(-c4ccccn4)c(=O)n3c2C)cn1 [1-142] | 100 to 1000 nM
Cc1c(-c2cccc3c2ccn3C)c(C)n2c(=O)n(-c3ncccn3)ncc12 [1-97] | 100 to 1000 nM
Cc1c(-c2cccc(N3CCC3)c2)c(C)n2c(=O)n(C3CC3)ncc12 [1-33] | 100 to 1000 nM
COc1nccc(-c2c(C)c3cnn(-c4ncccn4)c(=O)n3c2C)c1F [1-138] | 100 to 1000 nM
COc1ccc(-c2c(C)c3cnn(-c4ncccn4)c(=O)n3c2C)c(C)c1 [1-134] | < 100 nM
Cc1c(-c2cccc(N3CCC3)c2)c(C)n2c(=O)n(-c3ncc(N)cn3)ncc12 [1-44] | < 100 nM
COc1cccc(-c2c(C)c3cnn(-c4ccccn4)c(=O)n3c2C)c1C [1-4] | 100 to 1000 nM
Cc1c(-c2ccnc(OC(F)F)c2)cc2cnn(-c3ccccn3)c(=O)n12 [1-146] | 100 to 1000 nM
CCOC(=O)c1cnc(-n2ncc3c(C)c(-c4cccc(OC5CC5)c4)c(C)n3c2=O)nc1 [1-19] | 1000 to 10000 nM
Cc1c(-c2cccc(OC3CC3)c2)cc2cnn(-c3ccccn3)c(=O)n12 [1-83] | 1000 to 10000 nM
Cc1c(-c2cc3cnn(-c4ncccn4)c(=O)n3c2C)ccnc1OC1CC1 [1-145] | < 100 nM
Cc1c(-c2ccnc(OC(F)F)c2)c(C)n2c(=O)n(-c3ncccn3)ncc12 [1-141] | 1000 to 10000 nM
Cc1c(-c2cccc(N3CCC3)c2)c(C)n2c(=O)n(-c3ncc(OC(F)F)cn3)ncc12 [1-42] | < 100 nM
COc1ccc(-c2c(C)c3cnn(-c4ccccn4)c(=O)n3c2C)cc1 [1-130] | 100 to 1000 nM
Cc1c(OC2CC2)cccc1-c1cc2cnn(-c3ccccn3)c(=O)n2c1C [1-84] | 100 to 1000 nM
Cc1c(-c2cccc(OC3CC3)c2)c(C)n2c(=O)n(-c3ncc(F)cn3)ncc12 [1-21] | < 100 nM
